Measured values reported in patent EP1090646A2, “Labelled d-mannoheptulose derivatives and their use for imaging of the endocrine pancreas” (UNIVERSITE LIBRE DE BRUXELLES, priority 1999, dated 2001).
Read-outs that look alike come from different tables or passages of the source.

Tests used:
[1] = test system: isolated pancreatic islets
Method: (§1) Unless otherwise mentioned, the pancreatic pieces or isolated islets were submitted after incubation, to four successive washes conducted at 4°C with a medium containing 20.0 µM cytochalasin B (Sigma, St. Louis, MO, USA).
In a further series of experiments, groups of 20 islets each were submitted, after incubation, to 6 successive washes at 4°C in the presence of cytochalasin B (20.0 µM).
In the last set of experiments in this series, groups of 20 islets each were incubated for 60 min at 37°C in the presence of D-[^3H]mannoheptulose (0.1 mM), washed thrice at 4°C, further incubated for 60 min at 37°C in the absence of the heptose but presence of cytochalasin B (20.0 µM), again submitted to 4 successive washes, and eventually examined for their radioactive content.

[2] = test system: tumoral islet cells of the RINm5F line
[3] = test system: tumoral islet cells of the INS-1 line
[4] = one day after intraperitoneal injection
Method: Female Wistar rats (220-230 g body wt.) were injected intravenously with streptozotocin (0.25 µmol/g body wt.) on day zero. Eight to nine days later, they were transplanted with 1,500-6,000 islets prepared by the collagenase procedure (2) from rats of the same sex and strain (Iffa Credo, L'Arbresle, France). The islets were placed (1,500 islets per module) in 1-4 implantation modules (Statice Santé, Besançon, France), which were inserted, under pentobarbital anaesthesia (0.5-0.6 µmol/g body wt.; Nembutal, Sanofi, Brussels, Belgium), into the peritoneal cavity. The modules were equipped with a 20 µm thick polycarbonate membrane (Whatman, Maidstone, Kent, UK) with 6 x 10^8 pores (diameter : 50 nm) per cm^2. The glycemia of the rats was monitored in blood samples collected from the severed end of the tail.
D-[^3H]mannoheptulose (100 µCi in 0.3 ml saline containing 0.1 mM unlabelled D-mannoheptulose) was injected intraperitoneally and the animals killed by decapitation 24 hours later after a last blood sampling from the severed end of the tail had been obtained for measurement of glycemia. The blood collected after decapitation in heparinized vials was used for measurements of radioactivity in aliquots of blood, plasma and erythrocytes, as well as for determination of plasma D-glucose and insulin concentration. Samples of the liver, gastrocnemius muscle and kidney, as well as the whole pancreas, were homogenised in 1.5 ml H2O, aliquot parts of the homogenates being used for DNA and radioactive measurements. The fluid present in the implantation device was aspirated and also examined for its radioactive content. Thereafter, the implantation device was repeatedly frozen and thawn in 0.4 ml H2O, aliquot parts of this extract being then again used for both DNA and radioactive determinations.
The methods used to measure DNA content (3), glycemia (Glycotronic C; Macherey-Nagel, Düren, Germany), plasma D-glucose (4) and insulin (5) concentrations were previously described in the cited references.

[5] = Method: Two preparations of D-[^3H]mannoheptulose were used. The first preparation, used in a few in vitro experiments and in one set of in vivo experiments (animals injected 30 to 60 min before sacrifice), was a product from Nycomed Amersham (Little Chalfont, Buckinghamshire, UK). […] The second preparation used in all other experiments was a product from NEN Life Science Products (Zaventem, Belgium). […] In all experiments conducted in vivo, the animals were injected intravenously with D-[^3H]mannoheptulose (10-40 µCi, and 200 µCi in the case of the rats killed 48 hours after this injection) placed in 300 µl of saline. Except in the animals killed 30-60 min after D-[^3H]mannoheptulose injection, the inoculate also contained 0.1 mM unlabelled D-mannoheptulose.
In the in vivo experiments, the STZ rats were either not treated with insulin (animals killed 30-60 min after D-[^3H]mannoheptulose injection) or received twice daily 6 U of insulin (Insulatard, Novo Nordisk, Bagsvaerd, Denmark) subcutaneously, the last of these injections being given at about 5 p.m. on the day before either the injection of D-[^3H]mannoheptulose (animals killed 15 min after D-[^3H]mannoheptulose administration) or the sacrifice of the rats (rats examined 48 hours after D-[^3H]mannoheptulose injection). The animals killed 15 min after the injection of D-[^3H]mannoheptulose received a total of either 5 insulin injections, the first being made at about 5 p.m. on the day after streptozotocin administration, or 6 insulin injections given between the third and fifth day after streptozotocin administration. In the rats killed 48 hours after the injection of D-[^3H]mannoheptulose, the insulin treatment was initiated at 9 a.m. 3 days after streptozotocin administration and continued for a total of 5 days.
At stated times after D-[^3H]mannoheptulose intravenous injection, the rats were killed by decapitation, blood was collected in heparinized vials and the plasma separated for measurement of its radioactive content, as well as D-glucose^13 and insulin^14 concentrations. Samples of gastrocnemius muscle, liver, kidney and pancreas were weighed, homogenised in 1.5-3.0 ml of water, and aliquot parts of these homogenates examined for their radioactive content by liquid scintillation.
All radioactive data were calculated as dpm/µl of plasma or dpm/mg wet wt. (muscle, liver, kidney, pancreas). In these four tissues, the results were eventually expressed as µl/mg wet wt., by dividing the radioactive content (dpm/mg) by the paired plasma value (dpm/µl).

[6] = test system: rat pancreatic islets or dispersed islet cells; settings: 60 min incubation at 37°C
Remark: listed apart in the source
pieces of pancreas = test: Apparent distribution space in pieces of pancreas from control and STZ rats; settings: for apparent distribution space in the presence of D-glucose relative to its absence: D-glucose 8.3 mM; for final distribution space relative to the initial incubation medium radioactive content: after the two successive incubations
Method: as §1
In the next series of experiments, the possible uptake of D-[^3H]mannoheptulose was compared to that of its hexaacetate ester in pieces of pancreas from normal rats (Figure 2).
In the last set of experiments in this series, pieces of pancreas from either normal or STZ rats were first incubated for 60 min at 37°C in the presence of 8.3 mM D-glucose, then submitted to 3 washes at 4°C in the presence of the hexose (8.3 mM) and cytochalasin B (20.0 µM), further incubated for 60 min at 37°C, still in the presence of D-glucose and the mould metabolite, and eventually submitted to 4 washes at 4°C prior to measurement of their radioactive content.

[7] = up to the 60th min after injection

[3H][C@@](O)(CO)[C@@H](O)[C@H](O)[C@@H](O)C=O [D-[5-^3H]glucose, reference compound]
apparent distribution space after incubation at 4°C relative to 37°C ([1]; 8.3 mM, 30 min, 6 washes): 55.5 ± 8.3%

[3H][C@@](O)([C@H](O)CO)[C@H](O)[C@H](O)C(=O)CO [D-[^3H]mannoheptulose]
apparent distribution space relative to the intracellular 3HOH space [2]: about 3% | apparent distribution space relative to the intracellular 3HOH space [3]: ~9% | calculated radioactive content of the transplanted islets (dpm/mg wet wt.) relative to paired plasma radioactive content (dpm/µl) [4]: 6.49 ± 1.27 | paired islet/pancreas ratio [4]: 11.59 ± 0.03 | radioactive content calculated for the transplanted islets [4]: 332.7 ± 30.7 dpm/mg wet weight | radioactive content of the kidney [4]: 51.0 ± 0.9 dpm/mg wet weight | radioactive content of the liver [4]: 64.5 ± 6.4 dpm/mg wet weight | radioactive content of the muscle [4]: 28.9 ± 7.8 dpm/mg wet weight | radioactive content of the pancreas [4]: 28.7 ± 2.6 dpm/mg wet weight | volume of distribution, as judged from the plasma radioactive content ([4]; STZ diabetic rats with transplanted islets): 10.0 ± 2.2 ml/g body weight | radioactive content of the pancreatic gland relative to paired plasma value, STZ rats as % of mean control value ([5]; 15-2880 min after intravenous injection, all available data pooled): 81.6 ± 4.2% | liver/plasma radioactive ratio, STZ rats as % of normal rats ([5]; STZ animals not treated with insulin, tracer amount only, no unlabelled heptose): 56.1 ± 3.3% | paired ratio liver/plasma radioactivity, STZ rats as % of control rats ([5]; insulin-treated STZ rats (n = 11)): 109.5 ± 8.3% | kidney radioactive content relative to paired plasma value, STZ rats as % of normal rats ([5]; rat, in vivo): 68.1 ± 6.5% | paired ratio muscle/plasma radioactivity, STZ rats as % of control rats ([5]; rat, in vivo): 87.7 ± 6.2% | radioactive content of the pancreatic gland relative to paired plasma value, STZ rats as % of mean control value ([5]; results at 15 min not taken into account): 77.9 ± 5.6% | muscle/liver ratio [5, 7]: ≤ 17.00 ± 1.17% | paired pancreas/muscle ratio [5, 7]: 125.71 ± 7.83% | pancreas/liver ratio [5, 7]: 21.26 ± 1.07% | apparent intracellular distribution space relative to the intracellular 3HOH space [6]: ~50% | radioactive content of the transplanted islets relative to that found in the pancreas (60 min after the intravenous injection): about 10 times | radioactive content in the liver and transplanted islets relative to the pancreatic gland (one hour after intravenous injection): 5-8 times | apparent distribution space in STZ rats relative to control value (pieces of pancreas; 0.1 mM, 10 to 60 min at 37°C, 8.3 mM D-glucose, overall mean): 89.2 ± 3.6% | apparent distribution space in the presence of cytochalasin B relative to reference value (no cytochalasin B) (pieces of pancreas; 0.1 mM, 60 min, 8.3 mM D-glucose, cytochalasin B 20.0 µM, pooled control and STZ rats): 101.1 ± 4.1% | apparent distribution space after two successive incubations relative to that after first incubation and immediate washes (pieces of pancreas; 0.1 mM, STZ rats): 9.4 ± 0.4% | apparent distribution space after two successive incubations relative to that after first incubation and immediate washes (pieces of pancreas; 0.1 mM, control rats): 14.4 ± 0.4% | ratio between the mean values of apparent distribution space after 60/10 min incubation (pieces of pancreas; 0.1 mM, normal rats, 37°C, 8.3 mM D-glucose): 1.36 ± 0.16 | final distribution space when the first incubation was conducted at 4°C relative to 37°C (pieces of pancreas; STZ rats): 38.0 ± 3.9% | apparent distribution space in the presence of D-glucose relative to its absence (pieces of pancreas; STZ rats, 0.1 mM, 60 min): 83.7 ± 4.5% | final distribution space relative to the initial incubation medium radioactive content (pieces of pancreas; STZ rats): 1.34 ± 0.11% | final distribution space relative to the initial incubation medium radioactive content (pieces of pancreas; control animals): 1.78 ± 0.10% | final distribution space when the first incubation was conducted at 4°C relative to 37°C (pieces of pancreas; control rats): 36.9 ± 4.2% | apparent distribution space in the presence of D-glucose relative to its absence (pieces of pancreas; control rats, 0.1 mM, 60 min): 106.7 ± 6.5% | apparent distribution space ([1]; 0.1 mM, 10-120 min incubation at 37°C, only 3 washes at 4°C with cytochalasin B 20.0 µM): ≥ 5.5 nl/islet | apparent distribution space in the presence of D-glucose relative to reference value (no D-glucose) ([1]; 0.1 mM, 30 or 120 min at 37°C, D-glucose 8.3 mM, 3 washes): 161.4 ± 23.7% | increase of apparent distribution space between the 15th and 120th min of incubation ([1]; 0.1 mM, 37°C, 8.3 mM D-glucose, 6 washes): 73.5 ± 30.3% | apparent distribution space relative to that of D-[5-3H]glucose (8.3 mM) ([1]; 0.1 mM, 30 min at 37°C, absence of D-glucose, 6 washes): 77.3 ± 9.4% | final radioactive content of islets first incubated with 8.3 mM D-glucose relative to absence of the hexose ([1]; 0.1 mM, 60 min 37°C, washes, further 60 min with cytochalasin B 20.0 µM): 168.5 ± 19.1% | final radioactive content with cytochalasin B in the first incubation medium containing 8.3 mM D-glucose, relative to reference value ([1]; 0.1 mM, cytochalasin B 20.0 µM, 60 min 37°C then second 60 min incubation): 103.7 ± 14.7%

[3H]O[3H] [^3HOH, reference compound]
apparent distribution space after two successive incubations relative to that after first incubation and immediate washes (pieces of pancreas; normal or STZ rats pooled (n = 16), second 60 min incubation with D-glucose and cytochalasin B): no more than 1.8 ± 0.4%
